This is an account of results in patent US8557800B2, “Sphingosine kinase inhibitors” (Apogee Biotechnology Corporation, priority 2005, dated 2013).

The target in one assay is P38 MAP kinase 2 (Homo sapiens, UniProt Q15759). Nature of the assay: Kinase selectivity panel. It is filed as biochemical. The note with it: read-out: percent of control activity, P38 MAP kinase 2. The procedure: (§1) A common problem with attempts to develop protein kinase inhibitors is the lack of selectivity toward the target kinase since the majority of these compounds interact with nucleotide-binding domains that are highly conserved among kinases. […] The compound was tested at a single concentration of 50 μM.

For the next assay, the target named is CHK1 (Homo sapiens, UniProt O14757). As to the kind of experiment: Kinase selectivity panel. It is filed as biochemical. The note with it: read-out: percent of control activity, CHK1. The procedure:
as §1

For another assay, the target named is CDK2/cyclinE (Homo sapiens, UniProt P24941). As to the kind of experiment: Kinase selectivity panel. It is filed as biochemical. The note with it: read-out: percent of control activity, CDK2/cyclinE. Here is the method: as §1
Another assay concerns the target PDK1 (Homo sapiens, UniProt O15530). As to the kind of experiment: Kinase selectivity panel. The note with it: read-out: percent of control activity, PDK1. It is filed as biochemical. Here is the method:
as §1

The next assay addresses cSrc (Homo sapiens, UniProt P12931). As to the kind of experiment: Kinase selectivity panel. The note with it: read-out: percent of control activity, cSrc. It is filed as biochemical. Here is the method: as §1
The target of the next assay is P38 MAP kinase 1 (Homo sapiens, UniProt Q16539). As to the kind of experiment: Kinase selectivity panel. It is filed as biochemical. As to conditions: read-out: percent of control activity, P38 MAP kinase 1. Here is the method: as §1
For another assay, the target named is cRaf (Homo sapiens, UniProt P04049). As to the kind of experiment: Kinase selectivity panel. It is filed as biochemical. The note with it: read-out: percent of control activity, cRaf. The procedure:
as §1

The next assay concerns the target Protein kinase C α (Homo sapiens, UniProt P17252). As to the kind of experiment: Kinase selectivity panel. It is filed as biochemical. The note with it: read-out: percent of control activity, Protein kinase C α. Here is the method: as §1
A further assay addresses Ca^2+/calmodulin PK IV (Homo sapiens, UniProt Q16566). Nature of the assay: Kinase selectivity panel. It is filed as biochemical. The note with it: read-out: percent of control activity, Ca^2+/calmodulin PK IV. Here is the method:
as §1

A further assay deals with EFGR (Homo sapiens, UniProt P00533). As to the kind of experiment: Kinase selectivity panel. As to conditions: read-out: percent of control activity, EFGR. It is filed as biochemical. The procedure:
as §1

The next assay deals with PKBα (Homo sapiens, UniProt P31749). Nature of the assay: Kinase selectivity panel. It is filed as biochemical. As to conditions: read-out: percent of control activity, PKBα. Here is the method:
as §1

For a further assay, the target named is Fyn (Homo sapiens, UniProt P06241). As to the kind of experiment: Kinase selectivity panel. It is filed as biochemical. As to conditions: read-out: percent of control activity, Fyn. Here is the method: as §1
A further assay addresses IKKα (Homo sapiens, UniProt O15111). As to the kind of experiment: Kinase selectivity panel. It is filed as biochemical. As to conditions: read-out: percent of control activity, IKKα. The procedure: as §1
A further assay concerns the target Protein kinase C ε (Homo sapiens, UniProt Q02156). Nature of the assay: Kinase selectivity panel. It is filed as biochemical. As to conditions: read-out: percent of control activity, Protein kinase C ε. Here is the method: as §1
In assay [1] the test system is retinal vascular permeability in diabetic rats. As to the kind of experiment: Diabetic retinopathy, streptozotocin rats. It is filed as in vivo, rat. The note with it: 25 or 75 mg/kg ip 5 days per week, Day 45 to Day 87. The procedure: Male Sprague-Dawley rats weighing 150-175 g were used. Diabetes was produced by intraperitoneal injection of streptozotocin (65 mg/kg in citrate buffer) after overnight fasting. Sham-injected non-diabetic animals were also carried as controls. Blood glucose was measured three days post-injection and animals with blood glucose over 250 mg/dL were used as diabetic rats for the study. Blood glucose levels and body weights were monitored weekly throughout the study. On Day 45, retinal vascular permeability was measured in a group of control and diabetic rats (Antonetti et al., 1998, Diabetes 47: 1953, Barber et al., 2005, Invest Ophthalmol Vis Sci 46: 2210). […] Sections were dewaxed and viewed with an Olympus OM-2 fluorescence microscope fitted with a Sony CLD video camera. Fluorescence intensities of digital images were measured using Leica Confocal Software (Version 2.61, build 1538, LCS Lite, 2004). The average retinal intensity for each eye was then normalized to non-injected controls analyzed in the same manner and to the plasma fluorescence of the animal. Through serial sectioning of the eye, this technique enables quantification of varied vascular permeability in the retina (Antonetti et al., 1998, Diabetes 47: 1953, Barber et al., 2005, Ibid.). […]

Assay [2] concerns C57BL/6 mice, DSS model of IBD. As to the kind of experiment: Acute DSS-colitis model. It is filed as in vivo, mouse. As to conditions: 2% DSS, 50 mg/kg oral daily. The procedure: We have conducted experiments with SK inhibitors using the dextran sulfate sodium (DSS) model of IBD. In these experiments, male C57BL/6 mice were provided with standard rodent diet and water ad libitum. After their acclimation, the animals were randomly divided into groups of 5 or 6 for DSS (40,000 MW from ICN Biomedicals, Inc., Aurora, Ohio)—and drug-treatment. The SK inhibitors were dissolved in PEG400, and given once daily by oral gavage in a volume of 0.1 mL per dose. Dipentum, an FDA-approved anti-colitis drug whose active ingredient, olsalazine, is converted to 5-aminosalicylic acid in vivo, was used as a positive control. The mice were given normal drinking water or 2% DSS and treated orally with an SK inhibitor or Dipentum at a dose of 50 mk/kg daily. The body weight of each animal was measured each day, and the Disease Activity Index (DAI) was scored for each animal on Days 4-6. On Day 6, the animals were sacrificed by cervical dislocation and the entire colon was removed and measured to the nearest 0.1 cm. Portions of the colons were then fixed, sectioned and their histologies were assessed on a blinded basis to determine their Histology Score. Other portions of the colons were used for biochemical analyses of inflammation markers.

For the next assay, the system named is DU145 (prostate). Nature of the assay: Human tumor cell line panel, sulforhodamine B. As to conditions: DU-145, 48 hours, mean ± sd. It is filed as cell-based.

Sequence of Protein kinase C ε (Q02156 whole entry): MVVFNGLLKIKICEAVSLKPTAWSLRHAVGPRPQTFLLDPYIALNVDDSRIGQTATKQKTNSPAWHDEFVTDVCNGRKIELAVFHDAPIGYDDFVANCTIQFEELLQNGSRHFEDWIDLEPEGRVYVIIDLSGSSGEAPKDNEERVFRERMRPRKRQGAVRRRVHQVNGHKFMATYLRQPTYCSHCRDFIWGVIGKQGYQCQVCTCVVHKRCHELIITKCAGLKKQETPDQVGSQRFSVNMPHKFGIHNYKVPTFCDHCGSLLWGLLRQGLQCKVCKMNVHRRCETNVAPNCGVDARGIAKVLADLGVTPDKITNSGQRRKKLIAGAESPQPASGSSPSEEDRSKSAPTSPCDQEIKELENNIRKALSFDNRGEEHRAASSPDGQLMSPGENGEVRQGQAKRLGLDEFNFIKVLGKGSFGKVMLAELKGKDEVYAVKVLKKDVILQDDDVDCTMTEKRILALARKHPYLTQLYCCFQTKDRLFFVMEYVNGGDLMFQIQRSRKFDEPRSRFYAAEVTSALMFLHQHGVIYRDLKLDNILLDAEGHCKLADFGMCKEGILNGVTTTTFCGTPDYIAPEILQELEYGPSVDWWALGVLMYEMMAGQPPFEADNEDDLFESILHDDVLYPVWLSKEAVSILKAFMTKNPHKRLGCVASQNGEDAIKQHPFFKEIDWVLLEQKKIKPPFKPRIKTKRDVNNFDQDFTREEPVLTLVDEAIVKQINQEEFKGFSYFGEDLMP
Sequence of EFGR (P00533 25-1210): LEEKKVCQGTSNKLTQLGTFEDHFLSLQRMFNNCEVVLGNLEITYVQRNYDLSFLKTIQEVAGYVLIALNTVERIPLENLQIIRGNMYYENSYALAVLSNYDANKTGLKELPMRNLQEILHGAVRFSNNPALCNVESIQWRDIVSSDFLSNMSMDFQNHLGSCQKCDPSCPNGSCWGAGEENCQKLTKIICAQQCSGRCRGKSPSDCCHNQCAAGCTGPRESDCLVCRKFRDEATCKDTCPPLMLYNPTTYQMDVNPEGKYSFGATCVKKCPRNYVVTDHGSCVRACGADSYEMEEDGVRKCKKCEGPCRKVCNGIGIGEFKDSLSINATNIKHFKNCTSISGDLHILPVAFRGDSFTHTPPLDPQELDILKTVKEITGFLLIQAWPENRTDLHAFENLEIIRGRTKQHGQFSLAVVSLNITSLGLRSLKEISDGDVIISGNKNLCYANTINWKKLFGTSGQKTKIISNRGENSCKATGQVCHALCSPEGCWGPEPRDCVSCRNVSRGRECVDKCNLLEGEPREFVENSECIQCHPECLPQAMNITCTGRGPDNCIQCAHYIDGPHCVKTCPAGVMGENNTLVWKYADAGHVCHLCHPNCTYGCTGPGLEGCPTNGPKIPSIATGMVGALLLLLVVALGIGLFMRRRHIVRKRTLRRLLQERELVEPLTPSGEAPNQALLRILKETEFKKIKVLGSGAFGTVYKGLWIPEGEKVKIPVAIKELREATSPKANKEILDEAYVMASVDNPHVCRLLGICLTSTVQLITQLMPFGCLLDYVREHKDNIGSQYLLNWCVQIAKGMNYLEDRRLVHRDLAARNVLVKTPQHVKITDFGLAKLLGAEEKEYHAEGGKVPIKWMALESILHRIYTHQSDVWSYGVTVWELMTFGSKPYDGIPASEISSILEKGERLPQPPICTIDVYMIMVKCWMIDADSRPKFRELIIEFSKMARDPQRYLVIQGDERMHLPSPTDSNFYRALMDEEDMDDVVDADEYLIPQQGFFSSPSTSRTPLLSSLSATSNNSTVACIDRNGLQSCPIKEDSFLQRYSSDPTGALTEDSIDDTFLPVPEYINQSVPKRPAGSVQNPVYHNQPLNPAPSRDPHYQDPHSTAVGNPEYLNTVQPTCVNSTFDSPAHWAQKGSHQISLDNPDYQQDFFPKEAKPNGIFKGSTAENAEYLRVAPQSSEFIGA
Sequence of cSrc (P12931 whole entry, species assumed): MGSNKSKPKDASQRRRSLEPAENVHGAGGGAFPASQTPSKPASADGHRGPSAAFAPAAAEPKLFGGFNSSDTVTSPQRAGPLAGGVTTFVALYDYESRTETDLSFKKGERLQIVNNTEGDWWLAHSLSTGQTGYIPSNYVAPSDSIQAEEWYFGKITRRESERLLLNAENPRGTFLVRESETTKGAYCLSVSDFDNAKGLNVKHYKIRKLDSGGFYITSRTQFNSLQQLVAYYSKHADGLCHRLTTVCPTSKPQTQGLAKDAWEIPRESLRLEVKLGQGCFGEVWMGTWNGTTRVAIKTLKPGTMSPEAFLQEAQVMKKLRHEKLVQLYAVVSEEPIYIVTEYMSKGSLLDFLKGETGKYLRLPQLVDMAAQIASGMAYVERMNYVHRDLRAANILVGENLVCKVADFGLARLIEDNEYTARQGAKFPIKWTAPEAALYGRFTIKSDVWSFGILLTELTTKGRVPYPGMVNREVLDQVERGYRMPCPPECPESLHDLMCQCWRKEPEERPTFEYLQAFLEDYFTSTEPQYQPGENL
Sequence of CHK1 (O14757 whole entry, species assumed): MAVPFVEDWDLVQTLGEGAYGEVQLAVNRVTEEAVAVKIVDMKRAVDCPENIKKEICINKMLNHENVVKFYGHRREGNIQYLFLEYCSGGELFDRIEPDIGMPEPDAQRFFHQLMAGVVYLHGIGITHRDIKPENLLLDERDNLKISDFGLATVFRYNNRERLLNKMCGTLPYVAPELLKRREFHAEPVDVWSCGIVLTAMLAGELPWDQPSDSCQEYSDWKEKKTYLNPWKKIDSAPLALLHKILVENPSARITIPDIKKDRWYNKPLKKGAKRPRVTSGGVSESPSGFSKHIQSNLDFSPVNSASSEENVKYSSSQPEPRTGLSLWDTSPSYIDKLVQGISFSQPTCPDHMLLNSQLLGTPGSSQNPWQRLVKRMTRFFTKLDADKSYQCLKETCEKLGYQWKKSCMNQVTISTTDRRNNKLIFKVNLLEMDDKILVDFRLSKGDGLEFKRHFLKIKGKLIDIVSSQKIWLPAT
Sequence of IKKα (O15111 whole entry, species assumed): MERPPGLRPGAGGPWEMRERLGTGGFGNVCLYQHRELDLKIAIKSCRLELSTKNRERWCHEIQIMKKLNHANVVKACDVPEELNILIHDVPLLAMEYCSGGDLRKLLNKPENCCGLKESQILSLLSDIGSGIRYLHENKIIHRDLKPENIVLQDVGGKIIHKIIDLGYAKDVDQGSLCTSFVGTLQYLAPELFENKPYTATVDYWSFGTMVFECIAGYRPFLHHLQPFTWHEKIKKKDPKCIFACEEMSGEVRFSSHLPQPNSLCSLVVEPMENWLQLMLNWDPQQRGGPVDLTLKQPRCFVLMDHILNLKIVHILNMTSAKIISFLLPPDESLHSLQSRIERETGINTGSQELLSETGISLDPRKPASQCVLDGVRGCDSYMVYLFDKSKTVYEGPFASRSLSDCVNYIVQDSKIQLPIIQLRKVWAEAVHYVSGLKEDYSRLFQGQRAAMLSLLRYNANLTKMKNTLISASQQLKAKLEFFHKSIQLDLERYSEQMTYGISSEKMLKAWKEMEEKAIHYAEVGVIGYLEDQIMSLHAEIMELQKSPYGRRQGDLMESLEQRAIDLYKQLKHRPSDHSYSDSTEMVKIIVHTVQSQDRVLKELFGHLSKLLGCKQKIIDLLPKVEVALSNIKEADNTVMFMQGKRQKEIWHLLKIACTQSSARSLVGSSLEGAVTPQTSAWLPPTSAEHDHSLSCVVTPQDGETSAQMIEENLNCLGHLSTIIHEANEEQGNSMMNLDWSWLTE
Sequence of PDK1 (O15530 whole entry): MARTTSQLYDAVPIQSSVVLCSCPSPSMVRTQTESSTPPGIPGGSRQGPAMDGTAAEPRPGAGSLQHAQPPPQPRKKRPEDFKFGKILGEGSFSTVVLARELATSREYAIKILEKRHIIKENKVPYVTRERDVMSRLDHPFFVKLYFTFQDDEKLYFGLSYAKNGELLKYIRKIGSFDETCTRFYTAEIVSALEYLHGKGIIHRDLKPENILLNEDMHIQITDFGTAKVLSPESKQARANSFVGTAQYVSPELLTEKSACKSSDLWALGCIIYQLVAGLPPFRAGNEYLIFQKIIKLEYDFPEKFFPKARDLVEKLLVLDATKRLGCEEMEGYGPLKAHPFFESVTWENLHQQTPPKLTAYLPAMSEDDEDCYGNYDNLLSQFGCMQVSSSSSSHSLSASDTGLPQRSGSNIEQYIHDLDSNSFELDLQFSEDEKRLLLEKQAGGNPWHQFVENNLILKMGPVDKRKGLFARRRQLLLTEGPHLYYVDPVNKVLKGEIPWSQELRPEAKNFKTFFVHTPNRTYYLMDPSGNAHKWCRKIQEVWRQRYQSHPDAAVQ

Turning to `O=C(NCc1ccncc1)C12CC3CC(C1)CC(c1ccc(Cl)cc1)(C3)C2` [Compound 62, 3-(4-Chloro-phenyl)-adamantane-1-carboxylic acid (pyridin-4-ylmethyl)-amide], the remaining activity at 50 µM amounted to 109 ± 5% at P38 MAP kinase 2; 142 ± 13% at CHK1; 106 ± 6% at CDK2/cyclinE; 116 ± 3% at PDK1; 115 ± 3% at cSrc; 94 ± 2% on P38 MAP kinase 1. Further, the remaining activity at 50 µM on cRaf was 96 ± 5%; at Protein kinase C α it was 86 ± 5%; at Ca^2+/calmodulin PK IV, 81 ± 3%; on EFGR, 101 ± 3%; on PKBα, 95 ± 2%; on Fyn, 84 ± 5%. The remaining activity at 50 µM turned out to be 150 ± 16% on IKKα and 101 ± 1% on Protein kinase C ε. The “FITC-BSA leakage into the retina vs untreated diabetic rats” value in [1] is listed as “substantially reduced”. In assay [2], the “increase in colon myeloperoxidase (MPO) activity” value is “markedly attenuated”. The colon length result in [2] (Day 6) is listed as “intermediate length”. For the same molecule, the “histological examination of colon sections” value in assay [2] (Day 6) is “no or mild crypt damage, no or low levels of inflammatory cell infiltration and no edema in the submucosa”. The “Disease Activity Index (intensity of IBD manifestations)” value in assay [2] (Days 4-6) was “reduced”. In addition, the “colonic S1P levels vs DSS-alone” value in assay [2] (LC-MS/MS) was “markedly lower”. Besides, the IC50 in the assay with DU145 (prostate) is 21.9 ± 1.5 µM.

As usually defined, the IC50 is the concentration that gives 50% inhibition.
